Experimental data as given in patent US8686115B2, “Compositions and methods for quantitatively monitoring lipids” (The Board of Trustees of the University of Illinois, priority 2009, dated 2014).
Where a chain is given by its changes, count along the chain named.

Columns and labels:
[1] = target: T1, epsin 1 ENTH domain (SEQ ID NO: 1) variant C96A (Homo sapiens, UniProt Q9Y6I3, C96A); assay: SPR equilibrium binding of epsin1 ENTH C96A to phosphoinositide-containing LUVs; details: POPC/POPS/PtdIns(4,5)P2 (77:20:3) LUVs, 20 mM Tris-HCl pH 7.4, 0.16 M KCl, read-out: Kd for PtdIns(4,5)P2
T1 construct: The Epsin1 ENTH domain (1-158 amino acids) was subcloned; GST (C, cleaved yes); made in house; host or cells: E. coli BL21 RIL codon plus
T1 sequence (Q9Y6I3 1-158 C96A): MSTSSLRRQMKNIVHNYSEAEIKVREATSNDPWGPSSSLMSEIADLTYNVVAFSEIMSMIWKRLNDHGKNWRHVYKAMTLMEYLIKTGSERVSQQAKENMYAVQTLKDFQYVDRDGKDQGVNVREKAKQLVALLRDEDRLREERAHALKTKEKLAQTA
Excerpt: (§1) The ENTH domain was engineered to introduce a single labeling site (M10C) on the membrane binding surface while removing an endogenous Cys (C96A). We also performed the S4W mutation to suppress its residual affinity for another lipid, phosphatidylinositol-3,4,5-trisphosphate (PtdIns(3,4,5)P3) (PtdIns(4,5)P2/PtdIns(3,4,5)P3=4 for wild type and >10 for the mutant) and to enhance the overall affinity for PtdIns(4,5)P2-containing membranes (ca. 4-fold) (Table 1).
(§2) With respect to FIG. 1, an L1 sensor chip was coated with POPC/POPS/PtdIns(4,5)P2 (77:20:3) LUVs. The proteins were incubated with a given concentration of IP3 for 5 minutes before injecting into the SPR instrument. Kinetic SPR measurements were performed in 20 mM Tris-HCL, pH 7.4, containing 0.16 KCl. […] A lower concentration of DAN-eENTH was used than that of PLCδ PH because the former has much higher affinity that the latter.
All mutations (S4W, M10C, and C96A) were performed by polymerase chain reaction mutagenesis and verified by DNA sequencing. eENTH may comprise the following sequence:
E. coli BL21 RIL codon plus (Stratagene) cells were used for protein expression. Cells were grown in Luria broth media containing 100 μg/ml of ampicillin at 37° C. 0.1 mM of Isopropyl β-D-1-thiogalactopyranoside was added to induce over-expression of recombinant proteins when the OD600 reached 0.5-0.8 and cells were grown for additional 6 to 10 hours at 25° C. Cells were harvested by centrifugation and cell pellets were resuspended in 50 mM Tris-HCl buffer (pH 7.4) containing 160 mM KCl, 1 mM phenylmethanesulphonylfluoride, and 5 mM of dithiothreitol (DTT). Cells were lysed by sonication and the lysate was collected by centrifugation at 4° C. […] Purity and the concentration of the recombinant proteins were determined by sodium dodecylsulfate-polyacrylamide gel electrophoresis and bicinchoninic acid assay, respectively. The DAN labeling yield of eENTH, which was calculated as the molar ratio of DAN (determined spectrophotometrically at 391 nm using its extinction coefficient of 20,000 cm^−1 M^−1) to protein, was typically 60-70%. […]

[2] = target: T2, epsin 1 ENTH domain, wild type, SEQ ID NO: 1 (Homo sapiens, UniProt Q9Y6I3); assay: SPR equilibrium binding of epsin1 ENTH domain (wild type) to phosphoinositide-containing LUVs
T2 construct: The Epsin1 ENTH domain (1-158 amino acids) was subcloned; GST (C, cleaved yes); made in house; host or cells: E. coli BL21 RIL codon plus
T2 sequence (Q9Y6I3 1-158): T1 sequence (Q9Y6I3 1-158 C96A) with A96C
Excerpt: as §1, §2
The Epsin1 ENTH domain (1-158 amino acids) was subcloned into the pGEX4T-1 vector and expressed as a […] glutathione S-transferase (GST)-tagged protein. The ENTH domain amino acid sequence is as follows:
E. coli BL21 RIL codon plus (Stratagene) cells were used for protein expression. Cells were grown in Luria broth media containing 100 μg/ml of ampicillin at 37° C. 0.1 mM of Isopropyl β-D-1-thiogalactopyranoside was added to induce over-expression of recombinant proteins when the OD600 reached 0.5-0.8 and cells were grown for additional 6 to 10 hours at 25° C. Cells were harvested by centrifugation and cell pellets were resuspended in 50 mM Tris-HCl buffer (pH 7.4) containing 160 mM KCl, 1 mM phenylmethanesulphonylfluoride, and 5 mM of dithiothreitol (DTT). Cells were lysed by sonication and the lysate was collected by centrifugation at 4° C. The GST-affinity resin (GenScript) for GST-tagged proteins or nickel-nitrilotriacetic acid resin (Qiagen, Valencia, Calif.) for His6-tagged proteins was added into the cell lysate and the mixture was gently shaken for 30 minutes at 4° C. The mixture was applied to a column and the column was washed once with 50 mM Tris-HCl buffer (pH 7.4) containing 160 mM KCl and 5 mM of DTT to reduce thiol group, and washed several times with the same buffer without DTT to remove DTT. For DAN labeling, 100 μg of acrylodan was added to the column at this stage and incubated 16 hours at 4° C. The excess acrylodan was removed by washing the column with the buffer several times. […] Purity and the concentration of the recombinant proteins were determined by sodium dodecylsulfate-polyacrylamide gel electrophoresis and bicinchoninic acid assay, respectively. The DAN labeling yield of eENTH, which was calculated as the molar ratio of DAN (determined spectrophotometrically at 391 nm using its extinction coefficient of 20,000 cm^−1 M^−1) to protein, was typically 60-70%. […]

[3] = target: T3, PLCδ-PH (PLCδ PH domain) (Homo sapiens, UniProt P51178); assay: SPR equilibrium binding of PLCδ-PH to phosphoinositide-containing LUVs; details: POPC/POPS/PtdIns(4,5)P2 (77:20:3) LUVs, 20 mM Tris-HCl pH 7.4, 0.16 M KCl, read-out: Kd for PtdIns(4,5)P2
T3 sequence (P51178 21-130 limits assumed): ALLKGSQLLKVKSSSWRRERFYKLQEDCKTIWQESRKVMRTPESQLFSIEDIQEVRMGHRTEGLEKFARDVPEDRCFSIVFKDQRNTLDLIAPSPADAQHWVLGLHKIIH
Procedure: as §2, with “1, an L1 sensor chip was coated with POPC/POPS/PtdIns(4,5)P2 (77:20:3) LUVs.” left out
LUVs were prepared by extrusion using a 100 nm-pore membrane. GUVs were prepared by electroformation. The lipid mixture were prepared in chloroform/methanol (3:1) at a total concentration of 0.4 mg/ml, then the lipid solution was spread onto the indium-tin oxide electrode surface and the lipid was dried under vacuum to form a uniform lipid film. Vesicles were grown in a sucrose solution (350 mM) while an electric field (3V, 20 Hz frequency) was applied for 5 hour at room temperature. After 1 to […] of sucrose-loaded GUV solution was added into a well glued onto a coverslip that was placed on the microscope stage. The well contained […] of 20 mM Tris-HCl buffer, pH 7.4, with 0.16 M KCl solution. The diameter of GUVs ranged from 5 to 30 μm.

Kd [1]: 53 nM
Kd ([2]; SPR, POPC/POPS/PtdIns(4,5)P2 (77:20:3) LUVs, 20 mM Tris-HCl pH 7.4, 0.16 M KCl, read-out: Kd for PtdIns(4,5)P2): 50 nM
PtdIns(4,5)P2/PtdIns(3,4,5)P3 selectivity ([2]; wild type): 4
Kd [3]: 180 nM
SMILES: CCCCCCCCCCCCCCCC(=O)OC[C@H](COP(=O)(O)O[C@@H]1[C@H](O)[C@H](O)[C@@H](OP(=O)(O)O)[C@H](OP(=O)(O)O)[C@H]1O)OC(=O)CCCCCCCCCCCCCCC [PtdIns(4,5)P2, phosphatidylinositol-4,5-bisphosphate]
